Results from paper PMC6767919 (European journal of pharmacology, 2019).
Marks after values point to notes of the source that are not given here.

Tests used:
[1] = target: T1, human 5-HT2C–INI (wild-type, WT) receptor (Homo sapiens, UniProt P28335); format: cell-based
T1 sequence (P28335 33-458): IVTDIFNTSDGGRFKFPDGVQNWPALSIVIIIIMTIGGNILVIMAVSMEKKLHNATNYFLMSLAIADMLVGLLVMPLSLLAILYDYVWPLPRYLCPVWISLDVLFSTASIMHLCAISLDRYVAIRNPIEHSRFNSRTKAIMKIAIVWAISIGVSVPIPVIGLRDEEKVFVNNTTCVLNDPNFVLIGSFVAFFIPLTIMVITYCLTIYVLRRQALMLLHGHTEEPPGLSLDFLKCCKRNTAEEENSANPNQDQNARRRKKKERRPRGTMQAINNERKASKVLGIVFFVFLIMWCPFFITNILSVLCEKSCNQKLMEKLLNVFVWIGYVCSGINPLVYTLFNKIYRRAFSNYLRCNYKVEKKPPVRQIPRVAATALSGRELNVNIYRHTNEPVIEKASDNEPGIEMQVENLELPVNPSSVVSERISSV

[2] = target: T2, 5-HT2C receptor (Homo sapiens, UniProt P28335); assay: Inverse agonist reduction of basal 5-HT2C-mediated IP production; format: cell-based; conditions: CHO-K1 cells; basal 5-HT2C-mediated IP production after 20 h of vehicle; n = 3
T2 sequence (P28335 33-458): T1 sequence (P28335 33-458)

[3] = target: T3, 5-HT2C-INI receptor (Homo sapiens, UniProt P28335); assay: DiscoverX PathHunter β-arrestin recruitment to the 5-HT2C receptor; format: cell-based; conditions: for Emax (% 5-HT), β-arrestin recruitment / pEC50, β-arrestin recruitment: U2OS cells stably expressing 5-HT2C-INI, agonist 2 h, n = 3
T3 sequence (P28335 33-458): T1 sequence (P28335 33-458)

[4] = target: T2, 5-HT2C receptor; assay: Inverse agonist sensitization of 5-HT2C receptor IP signaling; format: cell-based; conditions: pretreatment for 8 h or less; data not shown
[5] = target: T2, 5-HT2C receptor; conditions: ref Schlag et al., 2004; cited from earlier work
[6] = target: T4, 5-HT2C receptor (WT) (Homo sapiens, UniProt P28335); format: cell-based
T4 sequence (P28335 33-458): T1 sequence (P28335 33-458)

[7] = Solubility in the desensitization assay; format: physicochemical
[8] = target: T2, 5-HT2C receptor; assay: Effect of PKC inhibition on 5-HT-induced 5-HT2C receptor desensitization; conditions: 10 μM chelerythrine; data not shown
[9] = target: PKC; conditions: read-out: Ki for PKC; ref Herbert et al., 1990; Absolinova et al., 2010; cited from earlier work

| Structure (SMILES) | Emax (% 5-HT), inositol phosphate production [1] | agonist efficacy class relative to 5-HT, IP production [1] | pEC50, inositol phosphate production [1] | Imax (% decrease from basal), inositol phosphate reduction [2] [% decrease from basal] | Emax (% 5-HT), β-arrestin recruitment [3] | further results |
| --- | --- | --- | --- | --- | --- | --- |
| COc1cc(CC(C)N)c(OC)cc1I (racemic) [DOI, (±) 2,5-dimethoxy-4-iodoamphetamine] | 82 ± 4 % 5-HT | full agonists | 8.32 ± 0.10 |  |  |  |
| CN(C)[C@@H]1Cc2ccccc2[C@@H](C2CCCCC2)C1 (relative stereo) [CAT, (2S,4R)-(−)-trans-4-cyclohexyl-N,N-dimethyl-1,2,3,4-tetrahydronaphthalen-2-amine] |  |  |  | 26 ± 4 |  | pIC50, inositol phosphate reduction [2]: 7.17 ± 0.21 |
| CN(C)[C@@H]1Cc2ccccc2[C@@H](c2cccc(Br)c2)C1 (relative stereo) [MBP, (2S,4R)-(−)-trans-4-(3’[meta]-bromophenyl)-N,N-dimethyl-1,2,3,4-tetrahydronaphthalen-2-amine] | 73 ± 4^a % 5-HT | partial agonists | 7.76 ± 0.04 |  | 7 ± 4^a % 5-HT | effect on 5-HT2C receptor β-arrestin recruitment (in words) [3]: negligible effects; pEC50, β-arrestin recruitment [3]: 6.84 ± 0.10^a |
| CN(C)[C@@H]1Cc2ccccc2[C@@H](c2cccc(C(F)(F)F)c2)C1 (relative stereo) [MFP, (2S,4R)-(−)-trans-4-(3’[meta]-trifluoromethylphenyl)-N,N-dimethyl-1,2,3,4-tetrahydronaphthalene-2-amine] |  |  |  | 25 ± 3 |  | pIC50, inositol phosphate reduction [2]: 7.62 ± 0.10 |
| CN(C)[C@@H]1Cc2ccccc2[C@@H](c2ccccc2)C1 (relative stereo) [PAT, (2S,4R)-(−)-trans-4-phenyl-N,N-dimethyl-1,2,3,4-tetrahydronaphthalen-2-amine] | 50 ± 1^a % 5-HT |  |  |  |  |  |
| C[C@H](N)Cn1ccc2cc(F)c(Cl)cc21 [Ro 60–0175] | 99 ± 6 % 5-HT | full agonists | 8.30 ± 0.05 |  | 92 ± 4 % 5-HT | pEC50, β-arrestin recruitment [3]: 7.86 ± 0.11 |
| Cn1ccc2cc3c(cc21)CCN3C(=O)Nc1cccnc1 [SB 206553] |  |  |  | 32 ± 5 |  | sensitization of the 5-HT2C receptor after short pretreatment [4]: does not sensitize; sensitization of 5-HT2C receptors after 30 min pretreatment [5]: insufficient to sensitize |
| O=C1Nc2cc(Cl)c(Cl)cc2N2CCNCC12 (stereo not drawn) [WAY-161503] | 100 ± 2 % 5-HT | full agonists | 8.07 ± 0.08 |  |  |  |
| O=C1CCc2ccc(OCCCCN3CCN(c4cccc(Cl)c4Cl)CC3)cc2N1 [aripiprazole] | 40 ± 4^a % 5-HT |  |  |  | 8 ± 1^a % 5-HT | desensitization of 5-HT2C-PLC signaling (in words) [6]: did not desensitize; effect on 5-HT2C receptor β-arrestin recruitment (in words) [3]: negligible effects; solubility in the desensitization assay [7]: low solubility |
| COc1ccc2c(c[n+](C)c3c4cc5c(cc4ccc23)OCO5)c1OC [chelerythrine] |  |  |  |  |  | effect of chelerythrine on 5-HT-induced IP production in non-desensitized cells [8]: no effect; Ki [9]: 700 nM |
| C[C@H]1CNCCc2ccc(Cl)cc21 [lorcaserin] | 100 ± 1 % 5-HT |  |  |  | 118 ± 5^a % 5-HT |  |
| Clc1cccc(N2CCNCC2)c1 [mCPP, 1-(3-chlorophenyl)piperazine] | 88 ± 10 % 5-HT |  |  |  |  |  |
| CN1C[C@@H](NS(=O)(=O)N(C)C)C[C@@H]2c3cccc4c3c(cn4C)C[C@H]21 [mesulergine] |  |  |  | 17 ± 2 |  |  |
